Laboratory results reported in patent US20070128217A1 (priority 2003, published 2007).

Experiments:
[1] = test system: antibodies in sera from SARS patients (sera 1a, 1b, 2, 6, 37, 62, London, SARS-yellow, SARS-green); assay type: binding, human; design: Binding of serum 6 to linear peptides of protein X1 of SARS-CoV Urbani / Binding of serum 37 to linear peptides of protein X1 of SARS-CoV Urbani / Binding of serum 6 to looped/cyclic peptide (PEPSCAN-ELISA) / Binding of serum 37 to looped/cyclic peptide (PEPSCAN-ELISA) / Binding of serum 37 to looped/cyclic peptides of protein X1 of SARS-CoV Urbani / Binding of serum 6 to linear peptides of protein X2 / Binding of serum 37 to linear peptides of protein X2 / Binding of serum 37 to looped/cyclic peptides of protein X2 of SARS-CoV Urbani / Binding of serum 6 to linear peptides of protein M of SARS-CoV Urbani / Binding of serum 37 to linear peptides of protein M of SARS-CoV Urbani / Binding of serum 6 to looped/cyclic peptides of protein M of SARS-CoV Urbani / Binding of serum 37 to looped/cyclic peptides of protein M of SARS-CoV Urbani / Binding of serum 6 to linear peptides of protein X3 of SARS-CoV Urbani / Binding of serum 37 to linear peptides of protein X3 of SARS-CoV Urbani / Binding of serum 37 to looped/cyclic peptides of protein X3 of SARS-CoV Urbani / Binding of serum 6 to linear peptides of protein X4 of SARS-CoV Urbani / Binding of serum 37 to linear peptides of protein X4 of SARS-CoV Urbani / Binding of serum 37 to looped/cyclic peptides of protein X4 of SARS-CoV Urbani / Binding of serum 6 to linear peptides of protein X5 of SARS-CoV Urbani / Binding of serum 37 to linear peptides of protein X5 of SARS-CoV Urbani / Binding of serum 37 to looped/cyclic peptides of protein X5 of SARS-CoV Urbani / Binding of serum 6 to linear peptides of protein N of SARS-CoV Urbani / Binding of serum 37 to linear peptides of protein N of SARS-CoV Urbani / Binding of serum 6 to linear peptide (PEPSCAN-ELISA) / Binding of serum 1a to looped/cyclic peptides of protein N of SARS-CoV Urbani / Binding of serum 1b to looped/cyclic peptides of protein N of SARS-CoV Urbani / Binding of serum 2 to looped/cyclic peptides of protein N of SARS-CoV Urbani / Binding of serum 6 to looped/cyclic peptides of protein N of SARS-CoV Urbani / Binding of serum 37 to looped/cyclic peptides of protein N of SARS-CoV Urbani / Binding of serum 62 to looped/cyclic peptides of protein N of SARS-CoV Urbani / Binding of serum London to looped/cyclic peptides of protein N of SARS-CoV Urbani / Binding of serum SARS-green to looped/cyclic peptides of protein N of SARS-CoV Urbani: unit not given here
[2] = test system: control sera (pooled serum of ten healthy LUMC hospital workers; commercial negative donor pooled serum from the Dutch bloodbank); assay type: binding, human; design: Binding of Control serum LUMC to linear peptides / Binding of Control serum Blood-bank to linear peptides / Binding of Control serum LUMC to looped peptides / Binding of Control Serum Blood-Bank to Looped peptides / Binding of Control serum LUMC to linear peptides of the protein M of SARS-CoV Urbani / Binding of Control serum Blood-bank to linear peptides of the protein M of SARS-CoV Urbani / Binding of Control serum LUMC to looped peptides of the protein M of SARS-CoV Urbani / Binding of Control Serum Blood-Bank to Looped peptides of the protein M of SARS-CoV Urbani: unit not given here
[3] = test system: rabbit serum obtained by immunizing a rabbit with the SARS-CoV strain Frankfurt 1; assay type: binding; design: Binding of a rabbit serum to linear peptides / Binding of a rabbit serum to looped peptides / Rabbit serum linear peptides / Rabbit serum looped peptides / Binding of a rabbit serum to linear peptides of protein N of SARS-CoV Urbani (Rabbit serum linear peptides) / Binding of a rabbit serum to looped/cyclic peptides of protein N of SARS-CoV Urbani (Rabbit serum looped peptides): unit not given here
[4] = test system: recombinant human anti-SARS-CoV antibody 03-018; assay type: binding; design: Binding of antibody 03-018 to linear peptides of the N protein of SARS-CoV Urbani / Binding of antibody 03-018 to looped/cyclic peptides of the N protein of SARS-CoV Urbani: unit not given here

## LLLDRLNQLESKVSG
[1]
  Binding of serum 1a to linear peptide (PEPSCAN-ELISA): 0.3
  Binding of serum 1a to looped/cyclic peptides of protein N of SARS-CoV Urbani: 0.3
  Binding of serum 1b to linear peptide (PEPSCAN-ELISA): 0.2
  Binding of serum 1b to looped/cyclic peptides of protein N of SARS-CoV Urbani: 0.1
  Binding of serum 2 to linear peptide (PEPSCAN-ELISA): 0.4
  Binding of serum 2 to looped/cyclic peptides of protein N of SARS-CoV Urbani: 0.4
  Binding of serum 6 to linear peptide (PEPSCAN-ELISA): 0.2
  Binding of serum 6 to looped/cyclic peptides of protein N of SARS-CoV Urbani: 0.1
  Binding of serum 37 to linear peptide (PEPSCAN-ELISA): 0.8
  Binding of serum 37 to looped/cyclic peptides of protein N of SARS-CoV Urbani: 0.5
  Binding of serum 62 to linear peptide (PEPSCAN-ELISA): 0.6
  Binding of serum 62 to looped/cyclic peptides of protein N of SARS-CoV Urbani: 0.3
  Binding of serum London to linear peptide (PEPSCAN-ELISA): 0.9
  Binding of serum London to looped/cyclic peptides of protein N of SARS-CoV Urbani: 0.3
  Binding of serum SARS-green to linear peptide (PEPSCAN-ELISA): 1.1
  Binding of serum SARS-green to looped/cyclic peptides of protein N of SARS-CoV Urbani: 0.6
  Binding of serum SARS-yellow to linear peptide (PEPSCAN-ELISA): 0.7
  Binding of serum SARS-yellow to looped/cyclic peptides of protein N of SARS-CoV Urbani: 0.2
[2]
  Binding of Control Serum Blood-Bank to Looped peptides: 0.5
  Binding of Control serum Blood-bank to linear peptides: 0.8
  Binding of Control serum LUMC to linear peptides: 0.9
  Binding of Control serum LUMC to looped peptides: 0.5
[3]
  Binding of a rabbit serum to linear peptides of protein N of SARS-CoV Urbani (Rabbit serum linear peptides): 0.2
  Binding of a rabbit serum to looped/cyclic peptides of protein N of SARS-CoV Urbani (Rabbit serum looped peptides): 0.2
[4]
  Binding of antibody 03-018 to linear peptides of the N protein of SARS-CoV Urbani: 0.1
  Binding of antibody 03-018 to looped/cyclic peptides of the N protein of SARS-CoV Urbani: 0.2

## LLPAADMDDFSRQLQ
[1]
  Binding of serum 1a to linear peptides of protein N of SARS-CoV Urbani: 0.3
  Binding of serum 1a to looped/cyclic peptides of protein N of SARS-CoV Urbani: 0.3
  Binding of serum 1b to linear peptides of protein N of SARS-CoV Urbani: 0.2
  Binding of serum 1b to looped/cyclic peptides of protein N of SARS-CoV Urbani: 0.1
  Binding of serum 2 to linear peptides of protein N of SARS-CoV Urbani: 0.3
  Binding of serum 2 to looped/cyclic peptides of protein N of SARS-CoV Urbani: 0.4
  Binding of serum 6 to linear peptides of protein N of SARS-CoV Urbani: 0.3
  Binding of serum 6 to looped/cyclic peptides of protein N of SARS-CoV Urbani: 0.1
  Binding of serum 37 to linear peptides of protein N of SARS-CoV Urbani: 0.8
  Binding of serum 37 to looped/cyclic peptides of protein N of SARS-CoV Urbani: 0.5
  Binding of serum 62 to linear peptides of protein N of SARS-CoV Urbani: 0.6
  Binding of serum 62 to looped/cyclic peptides of protein N of SARS-CoV Urbani: 0.2
  Binding of serum London to linear peptides of protein N of SARS-CoV Urbani: 0.6
  Binding of serum London to looped/cyclic peptides of protein N of SARS-CoV Urbani: 0.3
  Binding of serum SARS-green to linear peptides of protein N of SARS-CoV Urbani: 0.4
  Binding of serum SARS-green to looped/cyclic peptides of protein N of SARS-CoV Urbani: 0.2
  Binding of serum SARS-yellow to linear peptides of protein N of SARS-CoV Urbani: 0.6
  Binding of serum SARS-yellow to looped/cyclic peptides of protein N of SARS-CoV Urbani: 0.3
[2]
  Control Serum Blood-Bank Looped peptides: 0.4
  Control serum Blood-bank linear peptides: 0.7
  Control serum LUMC linear peptides: 0.6
  Control serum LUMC looped peptides: 0.4
[3]
  Binding of a rabbit serum to linear peptides of protein N of SARS-CoV Urbani (Rabbit serum linear peptides): 0.1
  Binding of a rabbit serum to looped/cyclic peptides of protein N of SARS-CoV Urbani (Rabbit serum looped peptides): 0.2
[4]
  Binding of antibody 03-018 to linear peptides of the N protein of SARS-CoV Urbani: 0.1
  Binding of antibody 03-018 to looped/cyclic peptides of the N protein of SARS-CoV Urbani: 0.2

## LNKHIDAYKTFPPTE
[1]
  Binding of serum 1a to linear peptides of protein N of SARS-CoV Urbani: 0.2
  Binding of serum 1a to looped/cyclic peptides of protein N of SARS-CoV Urbani: 0.2
  Binding of serum 1b to linear peptides of protein N of SARS-CoV Urbani: 0.1
  Binding of serum 1b to looped/cyclic peptides of protein N of SARS-CoV Urbani: 0.1
  Binding of serum 2 to linear peptides of protein N of SARS-CoV Urbani: 0.1
  Binding of serum 2 to looped/cyclic peptides of protein N of SARS-CoV Urbani: 0.2
  Binding of serum 6 to linear peptides of protein N of SARS-CoV Urbani: 0.1
  Binding of serum 6 to looped/cyclic peptides of protein N of SARS-CoV Urbani: 0.1
  Binding of serum 37 to linear peptides of protein N of SARS-CoV Urbani: 0.7
  Binding of serum 37 to looped/cyclic peptides of protein N of SARS-CoV Urbani: 0.4
  Binding of serum 62 to linear peptides of protein N of SARS-CoV Urbani: 0.5
  Binding of serum 62 to looped/cyclic peptides of protein N of SARS-CoV Urbani: 0.3
  Binding of serum London to linear peptides of protein N of SARS-CoV Urbani: 0.4
  Binding of serum London to looped/cyclic peptides of protein N of SARS-CoV Urbani: 0.3
  Binding of serum SARS-green to linear peptides of protein N of SARS-CoV Urbani: 0.4
  Binding of serum SARS-green to looped/cyclic peptides of protein N of SARS-CoV Urbani: 0.2
  Binding of serum SARS-yellow to linear peptides of protein N of SARS-CoV Urbani: 0.5
  Binding of serum SARS-yellow to looped/cyclic peptides of protein N of SARS-CoV Urbani: 0.1
[2]
  Control Serum Blood-Bank Looped peptides: 0.4
  Control serum Blood-bank linear peptides: 0.5
  Control serum LUMC linear peptides: 0.5
  Control serum LUMC looped peptides: 0.4
[3]
  Binding of a rabbit serum to linear peptides of protein N of SARS-CoV Urbani (Rabbit serum linear peptides): 0.1
  Binding of a rabbit serum to looped/cyclic peptides of protein N of SARS-CoV Urbani (Rabbit serum looped peptides): 0.4
[4]
  Binding of antibody 03-018 to linear peptides of the N protein of SARS-CoV Urbani: 0.1
  Binding of antibody 03-018 to looped/cyclic peptides of the N protein of SARS-CoV Urbani: 0.2

## LNQLESKVSGKGQQQ
[1]
  Binding of serum 1a to linear peptide (PEPSCAN-ELISA): 0.3
  Binding of serum 1a to looped/cyclic peptides of protein N of SARS-CoV Urbani: 0.4
  Binding of serum 1b to linear peptide (PEPSCAN-ELISA): 0.1
  Binding of serum 1b to looped/cyclic peptides of protein N of SARS-CoV Urbani: 0.3
  Binding of serum 2 to linear peptide (PEPSCAN-ELISA): 0.3
  Binding of serum 2 to looped/cyclic peptides of protein N of SARS-CoV Urbani: 0.6
  Binding of serum 6 to linear peptide (PEPSCAN-ELISA): 0.2
  Binding of serum 6 to looped/cyclic peptides of protein N of SARS-CoV Urbani: 0.4
  Binding of serum 37 to linear peptide (PEPSCAN-ELISA): 0.7
  Binding of serum 37 to looped/cyclic peptides of protein N of SARS-CoV Urbani: 0.6
  Binding of serum 62 to linear peptide (PEPSCAN-ELISA): 0.9
  Binding of serum 62 to looped/cyclic peptides of protein N of SARS-CoV Urbani: 0.6
  Binding of serum London to linear peptide (PEPSCAN-ELISA): 0.6
  Binding of serum London to looped/cyclic peptides of protein N of SARS-CoV Urbani: 0.5
  Binding of serum SARS-green to linear peptide (PEPSCAN-ELISA): 0.4
  Binding of serum SARS-green to looped/cyclic peptides of protein N of SARS-CoV Urbani: 0.5
  Binding of serum SARS-yellow to linear peptide (PEPSCAN-ELISA): 0.7
  Binding of serum SARS-yellow to looped/cyclic peptides of protein N of SARS-CoV Urbani: 0.8
[2]
  Binding of Control Serum Blood-Bank to Looped peptides: 0.7
  Binding of Control serum Blood-bank to linear peptides: 0.8
  Binding of Control serum LUMC to linear peptides: 0.7
  Binding of Control serum LUMC to looped peptides: 0.7
[3]
  Binding of a rabbit serum to linear peptides of protein N of SARS-CoV Urbani (Rabbit serum linear peptides): 0.2
  Binding of a rabbit serum to looped/cyclic peptides of protein N of SARS-CoV Urbani (Rabbit serum looped peptides): 0.4
[4]
  Binding of antibody 03-018 to linear peptides of the N protein of SARS-CoV Urbani: 0.1
  Binding of antibody 03-018 to looped/cyclic peptides of the N protein of SARS-CoV Urbani: 0.3
